The target in data set [1] is T1, androgen receptor (AR) (Homo sapiens, UniProt P10275).
T1 sequence (P10275 whole entry): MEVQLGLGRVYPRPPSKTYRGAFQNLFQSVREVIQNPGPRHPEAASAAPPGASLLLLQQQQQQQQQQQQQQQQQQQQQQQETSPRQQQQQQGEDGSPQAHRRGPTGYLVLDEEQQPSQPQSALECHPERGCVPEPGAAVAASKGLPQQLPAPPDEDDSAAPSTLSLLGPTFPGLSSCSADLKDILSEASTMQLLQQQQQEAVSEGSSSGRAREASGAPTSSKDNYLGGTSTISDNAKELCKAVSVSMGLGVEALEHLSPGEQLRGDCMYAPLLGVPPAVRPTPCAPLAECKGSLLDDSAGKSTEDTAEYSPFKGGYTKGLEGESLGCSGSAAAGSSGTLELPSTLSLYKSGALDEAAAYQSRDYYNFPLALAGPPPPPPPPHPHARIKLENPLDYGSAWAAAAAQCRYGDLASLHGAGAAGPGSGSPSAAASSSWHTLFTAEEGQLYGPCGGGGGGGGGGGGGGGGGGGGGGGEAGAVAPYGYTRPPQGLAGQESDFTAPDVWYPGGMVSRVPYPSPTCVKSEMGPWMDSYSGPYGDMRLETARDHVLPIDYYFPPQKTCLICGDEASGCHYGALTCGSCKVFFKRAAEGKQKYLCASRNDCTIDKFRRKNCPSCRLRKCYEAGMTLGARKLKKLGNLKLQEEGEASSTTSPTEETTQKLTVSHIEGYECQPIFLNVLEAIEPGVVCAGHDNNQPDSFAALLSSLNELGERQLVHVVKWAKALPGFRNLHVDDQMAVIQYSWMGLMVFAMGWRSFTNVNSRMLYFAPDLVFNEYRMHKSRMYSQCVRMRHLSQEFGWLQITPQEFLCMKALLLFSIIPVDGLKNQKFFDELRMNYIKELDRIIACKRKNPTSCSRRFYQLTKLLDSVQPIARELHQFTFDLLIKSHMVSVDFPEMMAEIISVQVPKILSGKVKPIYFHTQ
In words: Agonist activity at AR (unknown origin) expressed in human LNCaP cells incubated for 20 hrs by luciferase reporter gene assay relative to mifepristone. It counts as cell-based. Particulars: human LNCaP cells expressing AR; call rule not given here. On the technique in general: In a reporter assay the amount or activity of a reporter protein is the signal.

The target of data set [2] is T2, Androgen receptor (Homo sapiens, UniProt P10275).
T2 sequence (P10275 whole entry): T1 sequence (P10275 whole entry)
Nature of the data set: Agonist activity at AR in human MDA-MB-453 cells assessed as increase in CLDN8 gene expression at 111 to 333 nM incubated for 24 hrs by RT-qPCR method. Format: cell-based. Particulars: mda-mb-453, 24 h, 0.333 µM. On the technique in general: Real-time PCR tracks product formation cycle by cycle.

Data set [3] in a line: Cmax in mini pig at 10 mg/kg, po. It counts as ADME, organism-based, Sus scrofa. Further details: dose 10 mg/kg, route oral. Particulars: in vivo.
Data set [4] can be described thus: AUC in mini pig at 10 mg/kg, po. Format: ADME, organism-based, Sus scrofa. The note with it: in vivo.
The target in data set [5] is T3, Glucocorticoid receptor (Rattus norvegicus, UniProt P06536).
T3 sequence (P06536 whole entry): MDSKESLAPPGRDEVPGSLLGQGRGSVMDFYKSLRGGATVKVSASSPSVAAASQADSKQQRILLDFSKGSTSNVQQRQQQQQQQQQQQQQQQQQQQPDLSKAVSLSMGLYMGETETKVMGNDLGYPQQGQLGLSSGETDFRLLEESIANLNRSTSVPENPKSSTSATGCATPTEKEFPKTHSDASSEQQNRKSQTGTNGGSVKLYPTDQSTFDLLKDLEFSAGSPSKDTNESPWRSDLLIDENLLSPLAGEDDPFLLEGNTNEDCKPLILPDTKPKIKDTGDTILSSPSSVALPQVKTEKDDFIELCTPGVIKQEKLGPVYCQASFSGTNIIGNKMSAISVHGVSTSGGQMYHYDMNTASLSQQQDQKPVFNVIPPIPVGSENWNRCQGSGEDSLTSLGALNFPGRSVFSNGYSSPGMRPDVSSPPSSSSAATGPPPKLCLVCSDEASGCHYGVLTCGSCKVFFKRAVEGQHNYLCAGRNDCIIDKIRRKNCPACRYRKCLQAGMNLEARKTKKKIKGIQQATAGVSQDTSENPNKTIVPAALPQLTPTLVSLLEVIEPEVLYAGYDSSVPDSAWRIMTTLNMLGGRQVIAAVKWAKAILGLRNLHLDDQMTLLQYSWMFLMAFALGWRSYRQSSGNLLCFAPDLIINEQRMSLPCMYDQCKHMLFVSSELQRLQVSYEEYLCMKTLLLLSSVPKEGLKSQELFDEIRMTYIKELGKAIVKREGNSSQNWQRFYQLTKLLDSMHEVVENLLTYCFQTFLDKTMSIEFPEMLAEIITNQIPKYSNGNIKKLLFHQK
Nature of the data set: Antagonist activity at GR in rat PBMC assessed as reduction in dexamethasone-induced FKBP5 gene expression incubated for 24 hrs by RT-qPCR method. Format: cell-based.

Data set [6] has as its target T4, Glucocorticoid receptor (Sus scrofa, UniProt Q9N1U3).
T4 sequence (Q9N1U3 whole entry): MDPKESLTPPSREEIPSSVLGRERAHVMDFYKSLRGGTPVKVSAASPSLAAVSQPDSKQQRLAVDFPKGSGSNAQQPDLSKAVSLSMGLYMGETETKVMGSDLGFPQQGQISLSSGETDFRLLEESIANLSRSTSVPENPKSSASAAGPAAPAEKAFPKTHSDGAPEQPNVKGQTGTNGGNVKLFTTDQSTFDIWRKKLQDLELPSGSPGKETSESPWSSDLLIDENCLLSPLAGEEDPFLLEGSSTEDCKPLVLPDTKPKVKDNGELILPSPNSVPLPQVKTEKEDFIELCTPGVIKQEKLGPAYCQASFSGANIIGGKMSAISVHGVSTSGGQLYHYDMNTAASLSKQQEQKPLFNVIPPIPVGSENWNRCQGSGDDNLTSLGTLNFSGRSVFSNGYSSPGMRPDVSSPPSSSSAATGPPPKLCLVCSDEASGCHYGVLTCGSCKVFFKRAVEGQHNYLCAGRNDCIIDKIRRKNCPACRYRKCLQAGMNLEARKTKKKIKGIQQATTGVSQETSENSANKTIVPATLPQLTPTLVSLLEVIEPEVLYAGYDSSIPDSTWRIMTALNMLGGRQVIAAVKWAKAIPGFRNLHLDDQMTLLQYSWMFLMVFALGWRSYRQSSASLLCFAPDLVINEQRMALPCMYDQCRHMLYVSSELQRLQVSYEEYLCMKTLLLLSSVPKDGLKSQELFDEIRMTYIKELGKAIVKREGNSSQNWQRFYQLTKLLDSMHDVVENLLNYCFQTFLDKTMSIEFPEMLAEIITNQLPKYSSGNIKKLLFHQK
Nature of the data set: Antagonist activity at GR in mini pig PBMC assessed as reduction in dexamethasone-induced FKBP5 gene expression incubated for 24 hrs by RT-qPCR method. Format: cell-based.

The text below walks through data of ChEMBL document CHEMBL4145686, “Discovery of a Potent and Selective Steroidal Glucocorticoid Receptor Antagonist (ORIC-101)” (J Med Chem, 2018).

The Emax is the maximal effect, on the per cent scale that the assay sets. In general, Cmax refers to the highest concentration seen after dosing. In general, AUC refers to concentration integrated over time. The low end stands for less exposure, the high end for more exposure. Usually IC50 stands for the concentration that inhibits the measured activity by half. As for `CC(C)N(C)c1ccc([C@H]2C[C@@]3(C)[C@@H](CC[C@@]3(O)C#CC(C)(C)C)[C@@H]3CCC4=CC(=O)CC[C@@H]4[C@H]32)cc1`, in data set [1], the maximal effect (Emax) at 20 h is 11%. In data set [2], the Activity entry is listed as “Not Active”. Also, the maximum concentration (Cmax) in data set [3] was found to be 153 ng/mL. This molecule came in with an area under the curve (AUC) in data set [4] of 1720 ng·h/mL. The concentration for half-maximal inhibition (IC50) in data set [5] came to 45.6 nM; in data set [6] it was 39.3 nM.
